Measured values: patent publication US3932384A, “Dibenzazecines” (Shionogi & Co., Ltd., priority 1972, dated 1976)

Experiments:
[1] = tested on: DS-mice; assay: Analgesic activity (Writhing method), phenylquinone-induced writhing in mice; format: in vivo; conditions: Mus musculus, ip, 0.25 h, phenylquinone i.p. 0.2 mg/10 g, 15 minutes, up-and-down method, read-out: Analgesic action, Writhing (ED50)
Procedure: 1. Analgesic activity (Writhing method);
DS-mice (15 to 17 g body weight, male and female) are treated with an intraperitoneal injection of 0.2 mg/10 g of 0.02 % phenylquinone solution as a writhing inducer and kept in an individual observation cage for 15 minutes after the administration of phenylquinone. […] The ED50 is calculated by the up-and-down method of Brownlee et al. [Fed.

[2] = Acute toxicity (mortality, LD50) in mice; conditions: mouse, in vivo; DS-mice; mortality during 72 hours after administration; Bliss' method
Procedure: Ten DS-mice (15 to 17 g body weight, male and female) in every group are used in the test at each dose level. Each assay compound is tested in 4 to 5 doses. The mortality is counted during a period of 72 hours after the administration of the test compound. The LD50 is calculated by the Bliss' method.

[3] = tested on: DS-mice; assay: Analgesic activity (Haffner method), tail-root pinch in mice; format: in vivo; conditions: Mus musculus, tail-root pinch with forceps, no withdrawal response within 3 seconds, Bliss' method, read-out: Analgesic action, Haffner (ED50)
Procedure: 2. Analgesic activity (Haffner method);
The tail-roots of DS-mice (15 to 17 g body weight, male and female) are pinched with a pair of forceps. Pain responses, such as biting, head turning and vocalization are observed. All of the control animals respond to the noxious stimulus with in a period of one second. […] The ED50 is calculated by the Bliss' method [Ann. Appl. Biol., 22, 134; 307 (1935); Quat. J. Pharmacol., 11, 192 (1938)].

SMILES	ED50 [1]	LD50 at 72 h [2]	ED50 [3]
CN1CCc2ccc(O)cc2CCc2cccc(O)c2C1.[O-][Cl+3]([O-])([O-])O [Compound 5, 4,11-Dihydroxy-6-methyl-5,6,7,8,13,14-hexahydrodibenz[c,g]azecine perchlorate]	50 mg/kg	300 mg/kg	
COc1ccc2c(c1OC)CN(C)CCc1cc(O)ccc1CC2 [Compound 3, 3,4-Dimethoxy-10-hydroxy-6-methyl-5,6,7,8,13,14-hexahydrodibenz[c,g]azecine]	22.3 mg/kg	231 mg/kg	37.9 mg/kg
CN1CCc2ccc(O)cc2CCc2ccc(O)c(O)c2C1 [Compound 1]	26 mg/kg	50 to 100 mg/kg	
COc1ccc2c(c1OC)CN(C)CCc1ccc(O)cc1CC2 [Compound 2, 3,4-Dimethoxy-11-hydroxy-6-methyl-5,6,7,8.13,14-hexahydrodibenz[c,g]azecine]	23.2 mg/kg	54.9 mg/kg	58 mg/kg
Br.CN1CCc2cc(O)ccc2CCc2ccc(O)c(O)c2C1 [Compound 6, 6-Methyl-3,4,10-trihydroxy-5,6,7,8,13,14-hexahydrodibenz[c,g]azecine hydrobromide]	75 mg/kg	300 mg/kg	
COc1ccc2c(c1OC)CNCCc1cc(O)ccc1CC2 [Compound 7, 3,4-dimethoxy-10-hydroxy-5,6,7,8,13,14-hexahydrodibenz[c,g]azecine]	26.5 mg/kg	500 mg/kg	250 mg/kg
Cc1c(N(C)C)c(=O)n(-c2ccccc2)n1C [Aminopyrine, reference compound]	44 mg/kg	335 mg/kg	138 mg/kg
COc1ccc2c(c1OC)CN(C)CCc1cc(CO)c(O)cc1CC2 [Compound 4, 3,4-dimethoxy-11-hydroxy-10-hydroxymethyl-6-methyl-5,6,7,8,13,14-hexahydrodibenz[c,g]azecin]	45 mg/kg	> 500 mg/kg	
